Test results reported in patent publication US20260306641A1, “HELICASE DEGRADERS” (priority 2023, published 2026).
Read-outs that look alike come from different tables or passages of the source.

Experiments:
[1] = tested on: T1, human CMG helicase (hCMG); assay: hCMG helicase fork-unwinding (strand displacement) assay; type: biochemical
T1 construct: made in house; host or cells: High Five insect cells, baculovirus (11 viruses co-infected)
Method: (§1) The human CMG helicase was purified following the established and validated protocol of Hurwitz and colleagues(19,20), with minor modifications. A detailed description of the approach is shown here, to allow for comparisons to the methods described by the Hurwitz group.
(§2) High Five insect cells (2-3 million cells/ml, 1.5 L), were in cultured in a shaking incubator at 27° C. in suspension with ESF921 serum free medium (Expression Systems, CA; cat. #96-001-01), then co-infected for 60 hrs with 11 baculoviruses expressing human 6His2Flag-Cdc45, the human MCM hexamer (Mcm2, Mcm3, Mcm4, Mem5, Mcm6, Mcm7), and human GINS (GST-Sld5, Psf3, Psf2, and Psf1). Each virus was infected at an MOI of ~10 from individual virus stocks. Infected cells were harvested by centrifugation at 650×g for 5 min at 4° C., washed with cold PBS, frozen on dry ice, and stored at −80° C. until use. The cell pellet (~20 mL) was thawed on ice, resuspended in 45 ml Hypotonic Buffer [20 mM Hepes-NaOH (pH 7.5), 5 mM KCl, 1.5 mM MgCl2] with protease inhibitors (1 mM [COMPOUND LEFT OUT], 1 mM Benzamidine, 0.15 μM Aprotinin, 4 μM Leupeptin, and 1 μM Antipain), and kept on ice for 10 min before lysing by Dounce homogenization (tight fitting, 60 strokes). The cell extract was adjusted to 0.42 M potassium acetate and centrifuged at 43,000×g for 1 hr at 4° C. The cleared lysate was mixed with 0.75 ml glutathione beads (cat. #17-0756-05; GE Healthcare) pre-equilibrated with FEQ buffer [20 mM Hepes-NaOH (pH 7.5), 0.42 M potassium acetate, 5 mM KCl, 1.5 mM MgCl2] and incubated by rotation at 4° C. overnight. Following centrifugation at 290×g at 4° C., the bound glutathione beads were washed four times (15 min each wash) with 40 ml of FW buffer [20 mM Hepes-NaOH (pH 7.5), 0.42 M potassium acetate, 1 mM DTT, 1 mM EDTA, 0.01% NP40, 10% glycerol (vol/vol) with protease inhibitors as above] containing protease inhibitors (as above). Bound proteins were eluted at 4° C. three times (1 hr each elution) with 3.5 ml Q buffer [20 mM Hepes-NaOH (pH 7.5), 1 mM DTT, 1 mM EDTA, 0.01% NP40, 10% glycerol (vol/vol), and protease inhibitors as above] containing 0.15 M potassium acetate and 20 mM reduced glutathione. The eluted fractions were combined and applied to a HiTrap Q-Sepharose FF column (HiTrap Q FF 1 mL, cat. #17505301, Cytiva), pre-equilibrated 3× with 5 ml of Q buffer containing 0.15 M, 0.75 M, 0.15M potassium acetate, in sequence. The Q-Sepharose FF column was washed with 10 ml of FW buffer containing protease inhibitors (as above). The proteins were eluted with 10 ml of Q buffer containing 0.75 M potassium acetate. The eluted fraction was mixed with 0.15 ml of anti-Flag M2 affinity gel/beads and incubated while rotating at 4° C. overnight. After centrifugation at 290×g for 5 min at 4° C., the beads were washed three times with 10 ml PreScission buffer [50 mM Tris-HCl (pH 7.5), 0.15 M NaCl, 1 mM DTT, 1 mM EDTA] for 15 min at 4° C., and eluted at 4° C. three times (1 hr each elution) with 0.2 ml PreScission enzyme buffer containing 0.2 mg/ml 3×-Flag peptides. The combined eluates were incubated with 20 Units of PreScission Protease (GE Healthcare) and 0.1 mL glutathione beads for 4 hr at 4° C. The supernatant was layered onto a 15-40% glycerol gradient [25 mM Tris-HCl (pH 7.5), 50 mM NaCl, 1 mM DTT, 1 mM EDTA, 0.01% NP40, protease inhibitors as above] in a 5 mL ultra-centrifugation tube and centrifuged at 260,000×g for 14 hr at 4° C. Glycerol fractions (0.15 mL each fraction) were collected from bottom of tube and stored at −80° C. until use. Typically, fractions 6-9 contained complete hCMG (~750-800 kDa) and co-migrated with thyroglobulin.
(§3) Helicase fork-unwinding assays were performed at 37° C. for 1 hr in 20 μL reaction volumes using 2-4 μl of hCMG (~15-30 fmol), in a buffer consisting of 25 mM Hepes-NaOH (pH 7.5), 5 mM NaCl, 0.5 mM ATP, 10 mM magnesium acetate, 1 mM DTT, 0.1 mg/ml bovine serum albumin (BSA), and ~10 fmol of radiolabeled DNA forks (20). […]

[2] = tested on: T1, human CMG helicase (hCMG); details: role: substrate, cited from earlier work
[3] = tested on: T2, Nc1ncnc2c1ncn2[C@@H]1O[C@H](COP(=O)(O)OP(=O)(O)OP(=O)(O)O)[C@@H](O)[C@H]1O; assay: hCMG helicase fork-unwinding (strand displacement) assay; type: biochemical, human; details: other: role: substrate
T2 construct: made in house; host or cells: High Five insect cells, baculovirus (11 viruses co-infected)
Method: as §1, §2, §3

[4] = tested on: T1, human CMG helicase (hCMG); assay: hCMG ATPase activity, FP ADP^2 Transcreener assay; type: biochemical; details: primary FP ATPase assay
Method: The fluorescent-polarization (FP) ADP-sensing assays were performed using the Transcreener® ADP^2 FP assay kit (cat #3010-1K, Bellbrook Labs). For hCMG inhibitor screening, assays were performed at 37° C. for 1 hr in 10 μl reactions in a 384-well plate (cat. #4514, Corning) using 2 μL of hCMG (~15 fmol), 25 mM Hepes-NaOH (pH 7.5), 10 mM NaCl, 0.5 mM ATP, 10 mM magnesium acetate, 1 mM DTT, 0.1 mg/ml BSA, and DNA fork substrates. […] Selected inhibitors or samples from a chemical library were added into the reactions when conducting the screening or testing inhibitor effectiveness. The NCI Diversity Set VI chemical library was obtained from the National Cancer Institute (Bethesda, MD).
The window of sensitivity for the ADP-sensing assays is determined by setting up two 10 μL control samples without any added hCMG helicase: a Low-FP mixture (4 nM ADP Alexa Fluor-633 Tracer alone) and a High-FP mixture (4 nM ADP Alexa Fluor-633 Tracer plus patented anti-ADP^2 Antibody). The amount of ADP^2 Antibody used had to be adjusted to account for the use of 500 μM ATP in our hCMG assays, versus 10 μM ATP in enzyme reactions typically assessed with standard kits prepared by BellBrook Labs. […] This was done according to the manufacturer by performing a titration with increasing ADP^2 Antibody, fixed 4 nM ADP Alexa Fluor-633 Tracer, and 500 μM ATP to determine the ~EC80-85 for millipol (mP) changes, which determined the optimal ADP^2 Antibody concentration to use as 0.64 mg/ml (FIG. 9A). Samples are read with a Perkin Elmer Envision II plate reader with optimized Cy5 (far-red) FP-compatible mirror and cubes (cat #2100-8390, Perkin Elmer). The Low-FP sample is the least polarized and gives a low mP reading, while the High-FP sample is the most polarized and gives the highest mP reading. The difference between the Low-FP and High-FP values defines the FP assay window, which is normally in a range of 150-200 mP under ideal conditions for screening purposes. The hCMG helicase hydrolyzes ATP to ADP and decreases the mP reading within this window, with an ideal change (ΔmP) in the FP window of at least 50% to be in a readable range for inhibitor screening (as per manufacturer). Potential hCMG chemical inhibitors reverse this effect and cause the mP readings to increase.
We performed a titration with increasing and decreasing concentrations of ADP and ATP, respectively, to assess the sensitivity of the FP assay in detecting ADP production (FIG. 9B). Consistent with the stated manufacturer predictions, the assay can reliably detect 1-3% changes in ADP production (i.e., 5-15 μM ADP production) in starting concentrations of ATP of 500 μM, with a Z′ efficiency between 0.6-0.8 (determined following manufacturer protocols).
Once the hCMG enzyme reactions are complete, 10 μL of 1× Stop Solution and Detection Buffer (buffer from BellBrook Labs; containing 4 nM ADP Alexa Fluor-633 Tracer plus ADP^2 Antibody) are added to each reaction, and to the High-FP control. The Low-FP control receives 10 μL of 1× Stop Solution and Detection Buffer containing only 4 nM ADP Alexa Fluor-633 Tracer (no Antibody). Samples are incubated at 25° C. for 1 hr, then read in the plate reader. […] Plate readings from these tests of potential positive hits should be similar to that seen with the Low-FP control, or such hits may instead be false-positives.

[5] = tested on: solid tumor cell lines (NCI-60 set); details: cited from earlier work
[6] = tested on: Cdk1 and Cdk2 targets (Rb, Cdc6, PP1a); assay: Immunoblot of Cdk1/Cdk2-dependent targets, HaCaT cells; type: cell-based, human; details: extended exposure (18 hrs)
Method: Immunoblots of total proteins from synchronized HaCaT cells treated with compounds at time of release (0 hr; beginning of G1 phase) and collected after 18 hrs of exposure. (FIG. 5A) DDK-dependent phosphorylation sites on Mcm2 were analyzed with phospho-specific antibodies. (FIG. 5B) Cdk1- and Cdk2-dependent targets (Rb, Cdc6, and PP1α) were analyzed with phospho-specific antibodies.

T1 sequence (P49736 whole entry): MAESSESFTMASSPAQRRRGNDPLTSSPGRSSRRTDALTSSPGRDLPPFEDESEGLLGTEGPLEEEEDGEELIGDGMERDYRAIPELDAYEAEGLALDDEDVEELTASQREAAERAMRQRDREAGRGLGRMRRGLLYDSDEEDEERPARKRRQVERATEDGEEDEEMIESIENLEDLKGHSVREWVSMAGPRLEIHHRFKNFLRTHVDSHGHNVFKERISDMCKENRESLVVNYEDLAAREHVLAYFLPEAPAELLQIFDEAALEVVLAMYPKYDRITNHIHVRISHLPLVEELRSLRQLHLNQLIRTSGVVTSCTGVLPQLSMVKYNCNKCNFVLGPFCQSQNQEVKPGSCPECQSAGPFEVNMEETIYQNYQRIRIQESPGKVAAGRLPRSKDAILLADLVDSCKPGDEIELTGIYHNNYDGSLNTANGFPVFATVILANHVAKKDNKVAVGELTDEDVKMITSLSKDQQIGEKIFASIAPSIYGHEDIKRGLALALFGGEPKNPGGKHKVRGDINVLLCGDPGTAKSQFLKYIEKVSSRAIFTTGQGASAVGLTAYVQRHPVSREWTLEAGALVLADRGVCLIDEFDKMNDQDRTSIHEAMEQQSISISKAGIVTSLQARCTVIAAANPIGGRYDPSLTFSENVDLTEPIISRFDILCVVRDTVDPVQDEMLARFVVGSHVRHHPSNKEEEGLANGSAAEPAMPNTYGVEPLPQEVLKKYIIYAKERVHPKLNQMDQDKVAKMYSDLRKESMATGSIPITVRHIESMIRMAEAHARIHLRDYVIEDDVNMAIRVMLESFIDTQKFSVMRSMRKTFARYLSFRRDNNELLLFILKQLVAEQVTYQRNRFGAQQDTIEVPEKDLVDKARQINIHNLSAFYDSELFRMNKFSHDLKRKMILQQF
T1 sequence (P25205 whole entry, further chain): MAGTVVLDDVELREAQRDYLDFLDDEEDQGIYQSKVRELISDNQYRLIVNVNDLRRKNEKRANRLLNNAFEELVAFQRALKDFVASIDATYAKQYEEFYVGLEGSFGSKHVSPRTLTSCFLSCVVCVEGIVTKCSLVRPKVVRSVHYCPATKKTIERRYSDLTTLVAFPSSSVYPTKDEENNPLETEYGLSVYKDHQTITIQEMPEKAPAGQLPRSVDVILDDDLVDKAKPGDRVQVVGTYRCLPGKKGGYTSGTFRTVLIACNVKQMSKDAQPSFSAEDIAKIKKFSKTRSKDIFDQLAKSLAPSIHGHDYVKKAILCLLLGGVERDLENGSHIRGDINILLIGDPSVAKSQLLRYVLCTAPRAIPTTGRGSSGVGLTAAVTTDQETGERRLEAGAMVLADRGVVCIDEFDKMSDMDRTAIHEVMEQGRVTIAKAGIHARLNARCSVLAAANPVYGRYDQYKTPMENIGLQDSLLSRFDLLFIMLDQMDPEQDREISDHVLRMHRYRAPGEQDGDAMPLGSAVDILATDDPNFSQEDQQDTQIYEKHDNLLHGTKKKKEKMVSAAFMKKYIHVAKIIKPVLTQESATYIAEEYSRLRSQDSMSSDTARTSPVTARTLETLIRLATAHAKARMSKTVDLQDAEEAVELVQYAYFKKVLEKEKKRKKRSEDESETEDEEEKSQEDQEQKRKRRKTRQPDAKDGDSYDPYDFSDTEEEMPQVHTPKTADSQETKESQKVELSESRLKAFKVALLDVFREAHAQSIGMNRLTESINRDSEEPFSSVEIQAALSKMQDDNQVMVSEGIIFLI
T1 sequence (P33991 whole entry, further chain): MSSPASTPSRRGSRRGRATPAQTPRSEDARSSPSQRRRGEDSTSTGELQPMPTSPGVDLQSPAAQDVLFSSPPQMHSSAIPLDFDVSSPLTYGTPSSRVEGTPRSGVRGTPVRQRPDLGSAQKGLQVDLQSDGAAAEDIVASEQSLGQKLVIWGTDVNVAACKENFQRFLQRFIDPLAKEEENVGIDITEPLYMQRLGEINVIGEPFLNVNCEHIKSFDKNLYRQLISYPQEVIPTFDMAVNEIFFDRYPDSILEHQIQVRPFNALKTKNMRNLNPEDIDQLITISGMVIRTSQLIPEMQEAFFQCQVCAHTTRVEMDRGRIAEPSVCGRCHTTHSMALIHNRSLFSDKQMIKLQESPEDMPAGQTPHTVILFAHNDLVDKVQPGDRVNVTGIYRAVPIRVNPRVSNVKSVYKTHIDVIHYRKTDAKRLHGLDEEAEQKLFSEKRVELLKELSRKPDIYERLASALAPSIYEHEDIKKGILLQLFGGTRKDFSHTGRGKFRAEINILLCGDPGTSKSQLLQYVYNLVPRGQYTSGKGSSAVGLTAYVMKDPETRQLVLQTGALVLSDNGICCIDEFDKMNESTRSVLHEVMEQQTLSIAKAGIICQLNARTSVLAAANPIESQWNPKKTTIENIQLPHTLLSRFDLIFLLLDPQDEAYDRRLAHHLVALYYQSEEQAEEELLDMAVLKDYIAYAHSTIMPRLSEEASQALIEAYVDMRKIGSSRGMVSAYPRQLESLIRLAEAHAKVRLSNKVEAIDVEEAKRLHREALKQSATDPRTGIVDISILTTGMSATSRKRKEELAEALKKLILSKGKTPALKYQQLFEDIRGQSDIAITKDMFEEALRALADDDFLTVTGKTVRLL
T1 sequence (P33992 whole entry, further chain): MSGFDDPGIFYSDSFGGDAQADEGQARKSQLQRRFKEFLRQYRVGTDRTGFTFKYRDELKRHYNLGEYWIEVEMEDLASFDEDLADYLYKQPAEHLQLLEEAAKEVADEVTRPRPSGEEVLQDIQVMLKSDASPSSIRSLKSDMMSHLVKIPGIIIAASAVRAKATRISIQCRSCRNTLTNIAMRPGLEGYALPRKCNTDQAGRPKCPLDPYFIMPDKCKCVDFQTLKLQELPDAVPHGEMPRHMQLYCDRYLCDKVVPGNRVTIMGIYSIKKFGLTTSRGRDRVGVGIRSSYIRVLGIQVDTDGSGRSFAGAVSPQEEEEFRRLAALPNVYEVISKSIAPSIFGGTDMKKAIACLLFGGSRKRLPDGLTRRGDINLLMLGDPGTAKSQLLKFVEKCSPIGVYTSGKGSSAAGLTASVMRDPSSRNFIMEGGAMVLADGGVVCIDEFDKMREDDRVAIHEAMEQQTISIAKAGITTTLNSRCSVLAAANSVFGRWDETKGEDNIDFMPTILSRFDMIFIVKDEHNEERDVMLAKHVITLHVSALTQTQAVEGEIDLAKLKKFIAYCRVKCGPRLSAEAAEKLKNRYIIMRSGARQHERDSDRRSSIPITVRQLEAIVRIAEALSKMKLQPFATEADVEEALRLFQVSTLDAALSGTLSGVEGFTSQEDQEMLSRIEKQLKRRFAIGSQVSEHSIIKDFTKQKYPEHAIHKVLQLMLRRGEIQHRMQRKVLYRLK
T1 sequence (Q14566 whole entry, further chain): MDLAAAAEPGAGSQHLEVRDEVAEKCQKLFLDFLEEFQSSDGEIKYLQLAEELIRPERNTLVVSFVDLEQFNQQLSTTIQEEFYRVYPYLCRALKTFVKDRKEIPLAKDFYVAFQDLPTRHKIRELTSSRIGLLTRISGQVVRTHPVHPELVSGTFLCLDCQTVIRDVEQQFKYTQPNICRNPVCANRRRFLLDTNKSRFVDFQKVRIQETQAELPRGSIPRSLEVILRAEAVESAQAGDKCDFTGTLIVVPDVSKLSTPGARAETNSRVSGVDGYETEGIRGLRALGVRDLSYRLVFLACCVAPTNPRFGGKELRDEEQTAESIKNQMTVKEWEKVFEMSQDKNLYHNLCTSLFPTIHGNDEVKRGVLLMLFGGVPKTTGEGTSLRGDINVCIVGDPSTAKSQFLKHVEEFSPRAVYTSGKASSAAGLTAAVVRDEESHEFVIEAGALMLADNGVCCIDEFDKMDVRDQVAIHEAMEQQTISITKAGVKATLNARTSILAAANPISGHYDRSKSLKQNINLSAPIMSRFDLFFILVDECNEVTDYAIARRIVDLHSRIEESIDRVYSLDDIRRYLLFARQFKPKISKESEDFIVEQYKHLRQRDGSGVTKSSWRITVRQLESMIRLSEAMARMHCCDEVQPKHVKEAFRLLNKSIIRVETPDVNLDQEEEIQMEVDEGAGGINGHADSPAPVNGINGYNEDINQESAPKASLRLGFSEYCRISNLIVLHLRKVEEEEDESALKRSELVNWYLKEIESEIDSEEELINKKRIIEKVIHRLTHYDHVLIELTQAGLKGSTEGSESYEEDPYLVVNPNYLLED
T1 sequence (P33993 whole entry, further chain): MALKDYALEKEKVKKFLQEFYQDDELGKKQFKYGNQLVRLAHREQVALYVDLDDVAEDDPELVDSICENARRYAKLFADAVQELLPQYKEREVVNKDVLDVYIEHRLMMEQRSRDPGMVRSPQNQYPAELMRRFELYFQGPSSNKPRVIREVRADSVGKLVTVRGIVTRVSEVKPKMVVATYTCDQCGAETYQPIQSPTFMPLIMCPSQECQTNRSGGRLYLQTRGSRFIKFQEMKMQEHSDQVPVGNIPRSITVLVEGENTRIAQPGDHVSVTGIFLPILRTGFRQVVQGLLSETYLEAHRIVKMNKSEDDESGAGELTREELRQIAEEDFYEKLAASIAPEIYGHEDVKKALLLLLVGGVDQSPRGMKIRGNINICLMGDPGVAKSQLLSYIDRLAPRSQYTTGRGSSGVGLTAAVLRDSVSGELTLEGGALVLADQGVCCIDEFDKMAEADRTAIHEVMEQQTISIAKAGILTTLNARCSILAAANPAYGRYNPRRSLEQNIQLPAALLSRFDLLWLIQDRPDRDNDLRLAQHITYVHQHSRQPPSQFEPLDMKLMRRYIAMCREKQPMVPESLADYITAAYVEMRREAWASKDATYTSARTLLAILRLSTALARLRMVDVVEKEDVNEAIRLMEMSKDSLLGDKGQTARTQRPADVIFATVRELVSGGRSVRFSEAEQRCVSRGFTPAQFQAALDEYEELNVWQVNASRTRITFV

Which “Vmax of the hCMG” value ([1]; role: substrate, inhibitor CA1 2.5 μM present) does the source give for `Nc1ncnc2c1ncn2[C@@H]1O[C@H](COP(=O)(O)OP(=O)(O)OP(=O)(O)O)[C@@H](O)[C@H]1O` [ATP] here?
Its value is “without a change in the Vmax”.

And the Km ([1]; role: substrate, no inhibitor, read-out: Km for ATP, fork-unwinding activity)?
Its Km is 690 µM.

And the “ATP hydrolysis rate of the human helicase” value ([2]; 500 μM ATP)?
Its value is −80 mol-ADP per minute per mol-hCMG.

What about the Km ([2]; described by others, read-out: Km for hCMG ATP hydrolysis activity) of the same compound?
Its Km is 625 µM.

For “human CMG helicase (hCMG) (Homo sapiens)”, which Km ([3]; inhibitor CA1 2.5 μM present) is on record?
The Km was 1550 µM.

What about the Km ([3]; no inhibitor) of the same compound?
Its Km is 690 µM.

What does the source list for `CO[C@@H]1[C@@H](OC(=O)c2ccc(C)[nH]2)[C@@H](O)[C@H](Oc2ccc3c(O)c(NC(=O)c4ccc(O)c(CC=C(C)C)c4)c(=O)oc3c2Cl)OC1(C)C` [clorobiocin]?
hCMG helicase inhibition in secondary strand-displacement assay ([1]; 500 μM compound): effective hCMG helicase inhibitors; inhibition of hCMG ATP hydrolysis [4]: effective nature of hCMG inhibition; growth suppression of solid tumor cell lines [5]: sensitive to similar low micromolar concentrations

For `O=C(NC1CCNCC1)c1[nH]ncc1NC(=O)c1c(Cl)cccc1Cl` [AT7519], which “phosphorylation of Cdk2 targets Rb, Cdc6 (S54P) and Cdk1 target PP1a” value [6] is on record?
Its value is “blocks phosphorylation”.
